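Cultured in 96-well plates, cells were exposed to test compound for 48 hours across five concentrations. At the TGI there is no net growth.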
How the values were obtained:
Assay in all cases: NCI-60 cell line screen, 48 h
[1] = system: SNB-78 CNS
[2] = system: DLD-1 colon
[3] = system: DMS 273 small cell lung
[4] = system: M19-MEL melanoma
[5] = system: XF 498 CNS
[6] = system: HOP-18 NSCLC
[7] = system: KM20L2 colon
[8] = system: DMS 114 small cell lung
[9] = system: RXF-631 renal

Row | Structure (SMILES) | TGI [1] | TGI [2] | TGI [3] | TGI [4] | TGI [5] | TGI [6] | TGI [7] | TGI [8] | TGI [9]
1 | CC1=C(O)C(=O)C2C(=O)C1C(C)C2c1ccccc1 (stereo unspecified) | > 100 µM | > 100 µM | > 100 µM | > 100 µM | > 100 µM | – | – | – | –
2 | CSc1nc2nccnc2c(=O)[nH]1 | – | > 100 µM | > 100 µM | > 100 µM | > 100 µM | > 100 µM | > 100 µM | > 100 µM | –
3 | OC(c1cc2ccccc2[nH]1)C(O)(c1cc2ccccc2[nH]1)c1cc2ccccc2[nH]1 (stereo unspecified) | – | 48 µM | 48.8 µM | 23.1 µM | – | – | > 245 µM | 29 µM | 58.3 µM
4 | COC(=O)CC(C(C(=O)OCc1ccccc1)C(C)O)N1C(=O)OCC1c1ccccc1 (stereo unspecified) | – | > 100 µM | > 100 µM | > 100 µM | > 100 µM | – | > 100 µM | > 100 µM | –
5 | O=C([O-])c1ccccc1Nc1ccccc1C(=O)[O-].[OH3+].[Zn+2] | > 87.1 µM | > 83.7 µM | 29.2 µM | 50.1 µM | 57.3 µM | > 75.9 µM | > 100 µM | 37.4 µM | –
6 | CC(C)(Oc1ccc2c(=O)cc(-c3ccc(Cl)cc3)oc2c1)C(=O)Nc1c(Cl)cccc1Cl | > 100 µM | > 100 µM | > 100 µM | > 100 µM | > 100 µM | > 100 µM | > 100 µM | > 100 µM | –
7 | CC1=C(C(=O)O)N2C(=O)[C@@H](NC(=O)C(c3ccccc3)N3CSC(=S)N(C(C)C)C3)C2SC1 (stereo partly specified) | > 100 µM | > 100 µM | > 100 µM | > 100 µM | > 100 µM | > 100 µM | > 100 µM | – | –
8 | [N-]=[N+]=C1C(=O)C2CC3CC1CC2C3 (stereo unspecified) | > 100 µM | > 100 µM | > 100 µM | > 100 µM | – | > 100 µM | > 100 µM | > 100 µM | > 100 µM
9 | CO/S(=N/S(=O)(=O)c1ccccc1)c1ccccc1[N+](=O)[O-] (stereo unspecified) | – | > 100 µM | > 100 µM | > 100 µM | > 100 µM | > 100 µM | > 100 µM | – | > 100 µM
10 | N=C1c2ccccc2C(=O)c2c(NCCNCCO)ccc(O)c21 | > 60 µM | 22.3 µM | 18.9 µM | 17.3 µM | – | 54.8 µM | 22 µM | 15.1 µM | –
11 | O=CC1=CCCN(CCc2c[nH]c3ccccc23)C1 | – | 111 µM | 94.4 µM | 152 µM | – | 109 µM | 122 µM | 146 µM | 102 µM

Reference: PubChem BioAssay (NCI)
